Measurements taken from patent publication US20260286302A1, “METHODS FOR PRODUCING A SUPER CENTRAL MEMORY CD8 T CELL SUBTYPE BY POLY(ADP-RIBOSE) POLYMERASE (PARP) INHIBITION AND USES THEREOF” (Georgetown University, priority 2023, published 2026).

Experiments:
B16F10 tumors = assay: B16F10 tumor model: tumor growth and survival; type: in vivo, mouse
Description: (§1) C57BL/6J mice were injected with 7×10^4 TC-1 cells per mouse or 1×10^5B16F10 cells per mouse in the right flank. Treatment in respective groups was started when tumors reached an average size of approximately 0.075 cm^3. […] Mice were treated daily with IP injection at a dose of 50 mg kg-1.
(§2) For vaccination, TC-1-specific E7 peptide (a nine amino acid peptide, […] (SEQ ID NO: 1); 100 μg per mouse per 100 μl; Celtak Bioscience) or B16-specific gp10025-33 nonamer peptide ([…] (SEQ ID NO: 2); 100 μg per mouse per 100 μl; AnaSpec) were used. Both the vaccines were mixed with a small 13-mer nonnatural pan-HLA DR-binding epitope (PADRE (SEQ ID NO: 3); aK-Cha-[…]a (SEQ ID NO: 4), where ‘a’ is d-alanine, and ‘Cha’ is 1-cyclohexylalanine, T helper epitope, 20 μg per mouse; Celtak Bioscience) and QuilA (adjuvant, 10 μg per mouse; Brenntag). For survival and therapy experiments, mice were vaccinated three times, starting at an average tumor size of 0.07 cm^3, while for immune response experiments mice were vaccinated twice with a one-week interval between vaccinations. Tumors were measured every 3-4 days using a digital vernier caliper, and the tumor volume was calculated using the formula: V=L×W2/2000, where V is tumor volume, L is the length of the tumor (longer diameter) and W is the width of the tumor (shorter diameter). Mice were monitored for tumor growth and survival. Mice were euthanized when the tumor volume reached 1.5 cm^3.

TC-1 tumors = assay: TC-1 tumor model: tumor growth and survival; type: in vivo, mouse; settings: for mice survived: TC-1 tumor model, day 22
Description: as §1, §2

pMel-1 CD8 T cells = type: cell-based
Description: For ACT experiments, CD8+ T cells from pMel-1 mice were activated with gp100 peptide with and without PARPi for 48 h. Based on their CD44 and CD62L expression, cells were sorted by FACS and transferred into 9-day-old B16F10 melanoma-bearing mice tumor-bearing mice (1×10^6 cells per mouse). Tumor growth and survival of mice were monitored.
A total of 0.1-0.2×10^6 cells per sample were stained for Live/Dead staining followed by fixation and permeabilization. […] CD8^+ T cells from tumor samples were stained similarly. Data acquisition was performed on a BD LSR II flow cytometer using the software FACS Diva v.9.0. Results were analyzed using FlowJo software (TreeStar). […]

human CD8 T cells = assay: In vitro-activated human CD8+ T cells, memory characteristics; type: cell-based; settings: anti-CD3/CD28 coupled beads for 72 h
Description: For evaluation of memory characteristics in human CD8+ T cells, naive CD8+ T cells were activated in the presence or absence of PARPi, by Dynabeads™ Human T-Activator CD3/CD28 (Thermo Fisher #11131), […]. Post-activation cells were gated upon CD8^+ T cell population and various characteristics were investigated as described in the Examples below.
(§3) A total of 0.1-0.2×10^6 cells per sample were stained for Live/Dead staining followed by fixation and permeabilization. For IFNγ and granzyme B (Gzm B) staining, BD Cytofix/Cytoperm (catalog no. 51-2090KZ) and BD Perm/Wash (catalog no. 51-2091KZ) buffer set were used according to the manufacturer's instructions (BD Pharmingen). CD8^+ T cells from tumor samples were stained similarly. Data acquisition was performed on a BD LSR II flow cytometer using the software FACS Diva v.9.0. Results were analyzed using FlowJo software (TreeStar). MitoFM, a green-fluorescent mitochondrial stain, which localizes to mitochondria, was used as described previously (Sukumar et al., Cell Metab 23 (1): 63-76, 2016).
To this end, human naïve CD8 T cells were activated with anti-CD3/CD28 coupled beads for 72 h.

[1] = system: CD8+ T cells in TME of B16F10 tumors; assay: Immune profiling of the TME, B16F10 tumor-bearing mice; type: in vivo, mouse
Description: Two-to-three days after the second vaccination, mice in the various groups were euthanized and tumors were collected.
as §3

[2] = system: CD8 T cells of patients with recurrent ovarian cancer; assay: PBMC of ovarian cancer patients pre and post treatment; type: in vivo, human
Description: Peripheral blood mononuclear cells (PBMCs) were isolated from whole blood collected in cell preparation tubes (CPT) with sodium citrate and viably frozen until analysis. After thawing, PBMCs were washed with flow buffer (5% BSA, 2 mM EDTA in PBS), incubated with Fc receptor blocking reagent (Miltenyi Biotec) and stained with monoclonal antibodies for 20-30 min at 4° C. For staining for Ki-67 and Granzyme B, cells were fixed and permeabilized using a Fix/Perm buffer (eBiosciences) according to the manufacturer's instructions. Dead cells were excluded from the analysis by using the viability dye, LIVE/DEAD Fixable (Life Technologies). All assays were performed using multiparametric flow cytometry (MACSQuant; Miltenyi Biotec). Data were analyzed using FlowJo software v.10.6.1 (FlowJo, LLC). Flow cytometric data were quantified either as the median fluorescence intensity or as a percentage of cells, as indicated.

B16F10 = assay: Tumor growth in immune deficient nude mice (B16F10); type: in vivo, mouse
Description: The effect of PARPi on direct CD8 T cell-driven anti-tumor immune response remains poorly understood. Therefore, to dissect this effect, the anti-tumor immune effect of PARPi was tested in vivo in tumor models that require T cell priming, which helps delineate the direct effect of the drug on CD8 T cells. […] While 18% and 10% of mice survived in the vaccine-treated and PARPi-treated groups, respectively, in the TC-1 tumor model at day 22, 90% survived when PARPi was added to the vaccine. Similarly, in the B16F10 tumor model, 10% of the mice treated with vaccine alone were alive at day 22, compared to 40% when PARPi was added.

## O=C(c1cc(Cc2n[nH]c(=O)c3ccccc23)ccc1F)N1CCN(C(=O)C2CC2)CC1 [olaparib]
B16F10 tumors; B16F10, PARPi 50 mg/kg IP daily in combination with gp100 vaccine
  tumor growth and survival, enhancement of anti-tumor immune response of the vaccine: significantly retarding tumor growth and prolonging survival
B16F10 tumors; B16F10 tumor model, day 22, PARPi added to the vaccine (gp100)
  mice alive: 40%
B16F10 tumors; B16 model, PARPi alone
  single agent effect: no single agent effect
TC-1 tumors; TC-1, PARPi 50 mg/kg IP daily in combination with HPV E7 vaccine
  tumor growth and survival, enhancement of anti-tumor immune response of the vaccine: significantly retarding tumor growth and prolonging survival
TC-1 tumors; TC-1, PARPi with vaccine, CD8 T cell depleting antibodies
  anti-tumor effect after depletion of CD8 T cells: loss of the anti-tumor effect
TC-1 tumors; PARPi added to the vaccine (HPV E7)
  mice survived: 90%
TC-1 tumors; treatment alone
  mice survived: 10%
pMel-1 CD8 T cells; 48 h time point
  toxicity (percentage of live cells): did not show any significant toxicity
pMel-1 CD8 T cells; 96 h after PARPi treatment
  phenotype of CD44intCD62Lint intermediate population: shifted more toward CD44^hiCD62L^hi population
pMel-1 CD8 T cells; CD44hiCD62Lhi population compared to TCM, 48 h
  expression of memory markers Eomes, CCR7 and Bcl2: significantly increased
pMel-1 CD8 T cells; TCM^sup cells
  mitochondrial mass (MitoFM): increase
pMel-1 CD8 T cells; TCM^sup cells vs TCM from gp100
  PGC1α expression: increase
pMel-1 CD8 T cells; activated pMel-1 CD8 T cells
  level of γH2AX: increase
pMel-1 CD8 T cells; compared to TCM, 48 h
  IFNγ and Gzm B in PARPi-induced CD44hiCD62Lhi cells: significantly higher
pMel-1 CD8 T cells; compared to gp100 alone, 48 h
  IFNγ and Gzm B expression on activated CD8 T cells: significant increase
pMel-1 CD8 T cells; gp100-activated, 48 h
  cell cycle: arrested in the G2/M phase
  proliferation capacity (Ki67): significantly reduced
pMel-1 CD8 T cells; gp100-activated, 48 h of treatment, for PARPi concentration-dependent
  percentage of CD44hiCD62Lhi TCM CD8 T cell population: increase
Human CD8 T cells
  IFNγ expression: significant increase
  number of CD45ROhiCCR7hi cells: significant increase
  number of CD45ROhiCD62Lhi cells: significant increase
[1]; B16, vaccinated in the presence of PARPi vs either treatment alone
  number of total and antigen-specific CD8+ T cells in TME: significant increase
[1]; B16F10, PARPi given with the vaccine
  IFNγ+ and granzyme B+ total and antigen-specific CD8+ T cells: enhanced functionality
[1]; B16F10, PARPi with vaccine
  vaccine-induced central memory CD8 T cells in the TME: increased
[1]; B16F10 TME
  proliferation of CD8 T cells as determined by Ki67 expression: significant decrease
[2]; olaparib plus anti-PDL1 (Durvalumab), pre vs post treatment
  frequency of Ki67+ CD8 T cells: decrease
[2]; olaparib plus anti-PDL1 (Durvalumab), some patients
  CD62L expression in TCM CD8 T cells: increased
[2]; ovarian cancer patients treated with olaparib plus anti-PDL1 (Durvalumab), pre vs post treatment
  patients with an increase in TCM CD8 T cells: 63%
B16F10
  tumor growth: did not affect tumor growth
